Data as given in publication PMC12368606 (2025).

Columns and labels:
[1] = test system: Seq1s (RNA, hairpin) ACCGUGACGGGCCUUUUUGGCUAUACGCGGU; assay: UV thermal melting; conditions: 10 μM NA; Tm 66.9 ± 2.0 to 72.1 ± 1.5 °C
[2] = test system: Seq1s (RNA, hairpin) ACCGUGACGGGCCUUUUUGGCUAUACGCGGU; assay: CSI-TOF mass spectrometry; conditions: 40 μM NA, 5 μM RNA
[3] = test system: Seq1s-4U (RNA, hairpin) ACCGUGACGGGCCUUUUGGCUAUACGCGGU; assay: NMR solution structure and titration; conditions: phosphate buffer, 5% D2O for titration

Cc1ccc2ccc(NC(=O)CCNCCC(=O)NCc3ccc4ccc(=O)[nH]c4n3)nc2n1
ΔTm [1]: 5.2 °C | binding [2]: yes | binding [3]: yes
